In patent US9155795B2, “CXCR4 receptor compounds” (Anchor Therapeutics, Inc., priority 2010, dated 2015):
Where a SMILES comes first, the peptide text is derived from it. [ ]: non-standard residue; d: D form. The star is where a group is joined. 2Nal = N[C@@H](Cc1ccc2ccccc2c1)C(=O)O; Palmitoyl = CCCCCCCCCCCCCCCC(=O)*; Cit = NC(=O)NCCC[C@H](N)C(=O)O; Nle = CCCC[C@H](N)C(=O)O

Target: T1, CXCR4 (Homo sapiens, UniProt P61073)
T1 construct: CCRF-CEM cells, a human T-cell ALL line that endogenously expresses CXCR4; endogenous in cells; host or cells: CCRF-CEM (human T-cell acute lymphoblastic leukemia line)
T1 sequence (P61073 whole entry): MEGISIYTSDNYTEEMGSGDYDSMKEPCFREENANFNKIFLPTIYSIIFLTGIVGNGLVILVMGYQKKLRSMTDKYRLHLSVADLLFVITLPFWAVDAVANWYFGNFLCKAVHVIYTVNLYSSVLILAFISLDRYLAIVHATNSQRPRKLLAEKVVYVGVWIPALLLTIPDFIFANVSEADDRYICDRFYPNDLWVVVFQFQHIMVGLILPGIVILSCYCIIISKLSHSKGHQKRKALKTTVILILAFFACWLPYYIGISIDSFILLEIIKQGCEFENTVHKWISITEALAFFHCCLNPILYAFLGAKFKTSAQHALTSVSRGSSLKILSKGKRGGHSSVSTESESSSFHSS
Test: Calcium flux assay, agonist mode, Flexstation (CCRF-CEM cells)
Assay type: cell-based
Details: CCRF-CEM, percent of maximum response compared with SDF-1α, read-out: % Intrinsic Activity
Description: Calcium Flux Assay is one of the most popular cell-based GPCR functional assays. It most often uses calcium sensing fluorescent dyes such as fura2 AM, fluo-4 and Calcium-4 to measure changes in intracellular calcium concentration. It is used mainly to detect GPCR signaling via Gαq subunit. Activation of these Gq-coupled GPCRs leads to activation of phospholipase C, which subsequently leads to increase in inositol phosphate production. IP3 receptors on endoplasmic reticulum sense the change then release calcium into cytoplasm. Intracellular calcium binding to the fluorescent dyes can be detected by instruments that quantify fluorescent intensities, such as FLIPR Tetra, Flexstation (MDS) and FDSS (Hamamatsu). In addition, to assess Gq-couple receptor signaling, a calcium flux assay can also be used to study Gs and Gi couple receptors by co-expressing CNG (cyclic nucleotide gated calcium channel) or chimeric G-proteins (Gqi5, Gsi5 for example). Activation of some Gi-coupled receptors can also be detected by calcium flux assay via Gβγ mediated phospholipase C activation.
The calcium flux assay was used to assess the test compounds' ability to activate the CXCR4 receptor in CCRF-CEM cells (human T lymphoblasts from acute lymphoblastic leukemia). […] After dye loading by incubating with Calcium-4 dye at 37° C. for 1 hour, cell plates were read at 37° C. using the using the Flexstation 3 workstation. Receptor activation was assessed by measuring changes in fluorescent intensity after the addition of the test compounds or the reference agonist SDF-1α on the using the Flexstation 3 workstation. EC50
and percent intrinsic actively were derived from the data collected. Intrinsic activity refers to the efficacy of the test compound and is calculated as the percent of maximum response compared with the response of the reference standard (i.e., natural agonist, SDF-1α).

Emax [%]	SMILES
90.2	CCCCCCCCCCCCCCCC(=O)N[C@@H](CCSC)C(=O)NCC(=O)N[C@@H](Cc1ccc(O)cc1)C(=O)N[C@@H](CCC(N)=O)C(=O)N[C@@H](CCCCN)C(=O)N1CCC[C@H]1C(=O)N[C@@H](CC(C)C)C(=O)N[C@@H](CCCNC(=N)N)C(=O)N[C@@H](CO)C(=O)N[C@@H](CCSC)C(=O)N[C@H](C(=O)N[C@@H](CC(=O)O)C(=O)N[C@@H](CCCCN)C(=O)N[C@@H](Cc1ccc(O)cc1)C(=O)N[C@@H](CCCNC(=N)N)C(=O)N[C@@H](CC(C)C)C(N)=O)[C@@H](C)O [Compound 6] (Palmitoyl-MGYQKPLRSMTDKYRL-NH2; C-terminus assumed)
100	CCCCCCCCCCCCCCCC(=O)N[C@@H](CCSC)C(=O)NCC(=O)N[C@@H](Cc1ccc(O)cc1)C(=O)N[C@@H](CCC(N)=O)C(=O)N[C@@H](CCCCN)C(=O)N[C@@H](CCCCN)C(=O)N[C@@H](CC(C)C)C(=O)N1CCC[C@H]1C(=O)N[C@@H](CCCNC(=N)N)C(=O)N[C@@H](CO)C(=O)N[C@@H](CCSC)C(=O)N[C@H](C(=O)N[C@@H](CC(=O)O)C(=O)N[C@@H](CCCCN)C(=O)N[C@@H](Cc1ccc(O)cc1)C(=O)N[C@@H](CCCNC(=N)N)C(=O)N[C@@H](CC(C)C)C(N)=O)[C@@H](C)O [Compound 7] (Palmitoyl-MGYQKKLPRSMTDKYRL-NH2; C-terminus assumed)
88	CCCCCCCCCCCCCCCC(=O)N[C@@H](CCSC)C(=O)NCC(=O)N[C@@H](Cc1ccc(O)cc1)C(=O)N[C@@H](CCC(N)=O)C(=O)N[C@@H](CCCCN)C(=O)N[C@@H](CCCCN)C(=O)N[C@@H](CC(C)C)C(=O)N[C@@H](CCCNC(=N)N)C(=O)N1CCC[C@H]1C(=O)N[C@@H](CO)C(=O)N[C@@H](CCSC)C(=O)N[C@H](C(=O)N[C@@H](CC(=O)O)C(=O)N[C@@H](CCCCN)C(=O)N[C@@H](Cc1ccc(O)cc1)C(=O)N[C@@H](CCCNC(=N)N)C(=O)N[C@@H](CC(C)C)C(N)=O)[C@@H](C)O [Compound 8] (Palmitoyl-MGYQKKLRPSMTDKYRL-NH2; C-terminus assumed)
61.7	CCCCCCCCCCCCCCCC(=O)N[C@@H](CCSC)C(=O)NCC(=O)N[C@@H](Cc1ccc(O)cc1)C(=O)N[C@@H](CCC(N)=O)C(=O)N[C@@H](CCCCN)C(=O)N[C@@H](CCCCN)C(=O)N[C@@H](CC(C)C)C(=O)N[C@@H](CCCNC(=N)N)C(=O)N[C@@H](CO)C(=O)N[C@@H](CCSC)C(=O)N[C@H](C(=O)N[C@@H](CC(=O)O)C(=O)N[C@@H](CCCCN)C(=O)N[C@@H](Cc1ccc(O)cc1)C(=O)N[C@@H](CCCNC(=N)N)C(=O)N[C@H](C(N)=O)C(C)C)[C@@H](C)O [Compound 11] (Palmitoyl-MGYQKKLRSMTDKYRV-NH2; C-terminus assumed)
73.2	CCCCCCCCCCCCCCCC(=O)N[C@@H](CCSC)C(=O)NCC(=O)N[C@@H](Cc1ccc(O)cc1)C(=O)N[C@@H](CCC(N)=O)C(=O)N[C@@H](CCCCN)C(=O)N[C@@H](CCCCN)C(=O)N[C@@H](CC(C)C)C(=O)N[C@@H](CCCNC(=N)N)C(=O)N[C@@H](CO)C(=O)N[C@@H](CCSC)C(=O)N[C@H](C(=O)N[C@@H](CC(=O)O)C(=O)N[C@@H](CCCCN)C(=O)N[C@@H](Cc1ccc(O)cc1)C(=O)N[C@@H](CCCNC(=N)N)C(=O)N[C@@H](CCCC)C(N)=O)[C@@H](C)O [Compound 12] (Palmitoyl-MGYQKKLRSMTDKYR[Nle]-NH2; C-terminus assumed)
61.4	CCCCCCCCCCCCCCCC(=O)N[C@@H](CCSC)C(=O)NCC(=O)N[C@@H](Cc1ccc(O)cc1)C(=O)N[C@@H](CCC(N)=O)C(=O)N[C@@H](CCCCN)C(=O)N[C@@H](CCCCN)C(=O)N[C@@H](CC(C)C)C(=O)N[C@@H](CCCNC(=N)N)C(=O)N[C@@H](CO)C(=O)N[C@@H](CCSC)C(=O)N[C@H](C(=O)N[C@@H](CC(=O)O)C(=O)N[C@@H](CCCCN)C(=O)N[C@@H](Cc1ccc(O)cc1)C(=O)N[C@@H](CCCCN)C(=O)N[C@@H](CC(C)C)C(N)=O)[C@@H](C)O [Compound 13] (Palmitoyl-MGYQKKLRSMTDKYKL-NH2; C-terminus assumed)
3.61	CCCCCCCCCCCCCCCC(=O)N[C@@H](CCSC)C(=O)NCC(=O)N[C@@H](Cc1ccc(O)cc1)C(=O)N[C@@H](CCC(N)=O)C(=O)N[C@@H](CCCCN)C(=O)N[C@@H](CCCCN)C(=O)N[C@@H](CC(C)C)C(=O)N[C@@H](CCCNC(=N)N)C(=O)N[C@@H](CO)C(=O)N[C@@H](CCSC)C(=O)N[C@H](C(=O)N[C@@H](CC(=O)O)C(=O)N[C@@H](CCCCN)C(=O)N[C@@H](Cc1ccc(O)cc1)C(=O)N[C@@H](CCCNC(N)=O)C(=O)N[C@@H](CC(C)C)C(N)=O)[C@@H](C)O [Compound 14] (Palmitoyl-MGYQKKLRSMTDKY[Cit]L-NH2)
81.5	CCCCCCCCCCCCCCCC(=O)N[C@@H](CCSC)C(=O)NCC(=O)N[C@@H](Cc1ccc(O)cc1)C(=O)N[C@@H](CCC(N)=O)C(=O)N[C@@H](CCCCN)C(=O)N[C@@H](CCCCN)C(=O)N[C@@H](CC(C)C)C(=O)N[C@@H](CCCNC(=N)N)C(=O)N[C@@H](CO)C(=O)N[C@@H](CCSC)C(=O)N[C@H](C(=O)N[C@@H](CC(=O)O)C(=O)N[C@@H](CCCCN)C(=O)N[C@@H](Cc1ccccc1)C(=O)N[C@@H](CCCNC(=N)N)C(=O)N[C@@H](CC(C)C)C(N)=O)[C@@H](C)O [Compound 15] (Palmitoyl-MGYQKKLRSMTDKFRL-NH2; C-terminus assumed)
34.4	CCCCCCCCCCCCCCCC(=O)N[C@@H](CCSC)C(=O)NCC(=O)N[C@@H](Cc1ccc(O)cc1)C(=O)N[C@@H](CCC(N)=O)C(=O)N[C@@H](CCCCN)C(=O)N[C@@H](CCCCN)C(=O)N[C@@H](CC(C)C)C(=O)N[C@@H](CCCNC(=N)N)C(=O)N[C@@H](CO)C(=O)N[C@@H](CCSC)C(=O)N[C@H](C(=O)N[C@@H](CC(=O)O)C(=O)N[C@@H](CCCCN)C(=O)N[C@@H](Cc1ccc2ccccc2c1)C(=O)N[C@@H](CCCNC(=N)N)C(=O)N[C@@H](CC(C)C)C(N)=O)[C@@H](C)O [Compound 16] (Palmitoyl-MGYQKKLRSMTDK[2Nal]RL-NH2; C-terminus assumed)
62.7	CCCCCCCCCCCCCCCC(=O)N[C@@H](CCSC)C(=O)NCC(=O)N[C@@H](Cc1ccc(O)cc1)C(=O)N[C@@H](CCC(N)=O)C(=O)N[C@@H](CCCCN)C(=O)N[C@@H](CCCCN)C(=O)N[C@@H](CC(C)C)C(=O)N[C@@H](CCCNC(=N)N)C(=O)N[C@@H](CO)C(=O)N[C@@H](CCCC)C(=O)N[C@H](C(=O)N[C@@H](CC(=O)O)C(=O)N[C@@H](CCCCN)C(=O)N[C@@H](Cc1ccc(O)cc1)C(=O)N[C@@H](CCCNC(=N)N)C(=O)N[C@@H](CC(C)C)C(N)=O)[C@@H](C)O [Compound 17] (Palmitoyl-MGYQKKLRS[Nle]TDKYRL-NH2; C-terminus assumed)
93.4	CCCCCCCCCCCCCCCC(=O)N[C@@H](CCSC)C(=O)NCC(=O)N[C@@H](Cc1ccc(O)cc1)C(=O)N[C@@H](CCC(N)=O)C(=O)N[C@@H](CCCCN)C(=O)N[C@@H](CCCCN)C(=O)N[C@@H](CC(C)C)C(=O)N[C@@H](CCCNC(=N)N)C(=O)N[C@@H](CO)C(=O)N[C@@H](Cc1c[nH]cn1)C(=O)N[C@H](C(=O)N[C@@H](CC(=O)O)C(=O)N[C@@H](CCCCN)C(=O)N[C@@H](Cc1ccc(O)cc1)C(=O)N[C@@H](CCCNC(=N)N)C(=O)N[C@@H](CC(C)C)C(N)=O)[C@@H](C)O [Compound 18] (Palmitoyl-MGYQKKLRSHTDKYRL-NH2; C-terminus assumed)
101	CCCCCCCCCCCCCCCC(=O)N[C@@H](CCSC)C(=O)NCC(=O)N[C@@H](Cc1ccc(O)cc1)C(=O)N[C@@H](CCC(N)=O)C(=O)N[C@@H](CCCCN)C(=O)N[C@@H](CCCCN)C(=O)N[C@@H](CC(C)C)C(=O)N[C@@H](CCCNC(=N)N)C(=O)N[C@@H](CO)C(=O)NCC(=O)N[C@H](C(=O)N[C@@H](CC(=O)O)C(=O)N[C@@H](CCCCN)C(=O)N[C@@H](Cc1ccc(O)cc1)C(=O)N[C@@H](CCCNC(=N)N)C(=O)N[C@@H](CC(C)C)C(N)=O)[C@@H](C)O [Compound 19] (Palmitoyl-MGYQKKLRSGTDKYRL-NH2; C-terminus assumed)
62.5	CCCCCCCCCCCCCCCC(=O)NCC(=O)N[C@@H](Cc1ccc(O)cc1)C(=O)N[C@@H](CCC(N)=O)C(=O)N[C@@H](CCCCN)C(=O)N[C@@H](CCCCN)C(=O)N[C@@H](CC(C)C)C(=O)N[C@@H](CCCNC(=N)N)C(=O)N[C@@H](CO)C(=O)N[C@@H](CCCC)C(=O)N[C@H](C(=O)N[C@@H](CC(=O)O)C(=O)N[C@@H](CCCCN)C(=O)N[C@@H](Cc1ccc(O)cc1)C(=O)N[C@@H](CCCNC(=N)N)C(=O)N[C@H](C(N)=O)[C@@H](C)CC)[C@@H](C)O [Compound 20] (Palmitoyl-GYQKKLRS[Nle]TDKYRI-NH2; C-terminus assumed)

SMILES	Emax [%]
CCCCCCCCCCCCCCCC(=O)N[C@@H](CCSC)C(=O)NCC(=O)N[C@@H](Cc1ccc(O)cc1)C(=O)N[C@@H](CCC(N)=O)C(=O)N[C@@H](CCCCN)C(=O)N[C@@H](CCCCN)C(=O)N[C@@H](CC(C)C)C(=O)N[C@@H](CCCNC(=N)N)C(=O)N[C@@H](CO)C(=O)N1CCC[C@@H]1C(=O)N[C@@H](CCSC)C(=O)N[C@H](C(=O)N[C@@H](CC(=O)O)C(=O)N[C@@H](CCCCN)C(=O)N[C@@H](Cc1ccc(O)cc1)C(=O)N[C@@H](CCCNC(=N)N)C(=O)N[C@@H](CC(C)C)C(N)=O)[C@@H](C)O [Compound 9] (Palmitoyl-MGYQKKLRS[dP]MTDKYRL-NH2; C-terminus assumed)	77.9
